Holding throughout (format): cell-based, human
Assay [1] relates to HTT. Description: HiBiT protein abundance assay, HTT. To be noted: Homo sapiens, modified K562 cells. The essentials: (§1)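 Protein abundance measured by Nano-Glo HiBiT lytic luminescence after 24 h compound exposure of modified K562 lines, 10000 cells/well, top final dose 10 μM in 3-fold steps. Four-parameter fit of control-normalised response gives concentration reducing abundance to 50% of untreated.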

For assay [2], the system named is HTT. Description: Splicing RT-qPCR assay, HTT mRNA canonical junction (CJ) and alternative junction (AJ). To be noted: Homo sapiens, read-out: HTT IC50 (decrease in CJ mRNA levels). The essentials: (§2)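 Cells: A673 (DMEM/10% FBS) or K562 (IMDM/10% FBS). Dose: 11-pt 3-fold, top 10 uM final, ≤0.25% DMSO, 24 h, 37 °C. Readout: RT-qPCR of CJ/AJ exon junctions, ΔΔCt vs housekeeper and DMSO, RQ to % response.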

For assay [3], the system named is MYB. Kind of assay: HiBiT protein abundance assay, MYB. As to conditions: Homo sapiens, modified K562 cells. In short, it runs like this: as §1
In assay [4] the test system is MYB. Description: Splicing RT-qPCR assay, MYB mRNA canonical junction (CJ) and alternative junction (AJ). To be noted: Homo sapiens, read-out: MYB IC50 (decrease in CJ mRNA levels). In short, it runs like this:
as §2

In assay [5] the test system is Target C. Kind of assay: HiBiT protein abundance assay, Target C. To be noted: Homo sapiens, modified K562 cells. The essentials: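 Target protein levels in engineered HiBiT-tagged cells were read by lytic luminescence after 24 h compound exposure (10000 cells/well, 10 μM top final, 3-fold steps, ≤0.25% DMSO). Unmodified K562 served as baseline; four-parameter regression gave concentration reducing abundance to 50%.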

Another assay relates to SMN2. Description: Splicing RT-qPCR panel, SMN2 canonical junction (CJ) mRNA. As to conditions: Homo sapiens, read-out: SMN2 IC50 (decrease in CJ mRNA levels). The essentials:
as §2

Assay [6] concerns Target C. Description: Splicing RT-qPCR panel, Target C canonical junction (CJ) mRNA. As to conditions: Homo sapiens, read-out: Target C IC50 (decrease in CJ mRNA levels). In short, it runs like this:
as §2

The mark [7] stands for this setting: RT-qPCR panel, canonical junction mRNA, compound concentration having 50% response in CJ decrease.
Setting [8] is: gene panel, CJ qPCR, protocol of Example 142.

Structures are written as SMILES. Read-outs that look alike come from different tables or passages of the source. Some results are limits rather than exact numbers.

Here are results for ten compounds from patent publication US20240368163A1, “COMPOUNDS AND METHODS FOR MODULATING SPLICING” (REMIX THERAPEUTICS INC., priority 2021, published 2024).

In the case of `c1cnn(-c2ccc(-c3cnc(N4CCNC5(CC5)C4)nn3)c3cn[nH]c23)c1` [Compound 577], the IC50 with HTT [1] (K562, 24 h, Table 13A) is 1000 to 10000 nM; with HTT [2] (setting [7]), 100 to 1000 nM; in the assay on MYB [3] (K562, 24 h, Table 13A), 1000 to 10000 nM; in the assay with MYB [4] (setting [7]), > 10000 nM; with Target C [5] (K562, 24 h, Table 13A), > 10000 nM; in the assay on SMN2 (setting [7]) it was 1000 to 10000 nM. Moreover, in the assay on Target C [6] (setting [7]), the IC50 is > 10000 nM.
For `CC(C)(C)[C@@H]1CN(c2ncc(-c3ccc(-n4cccn4)c4[nH]ncc34)nn2)CCN1` [Compound 582], the IC50 is 100 to 1000 nM in the assay on HTT [1] (K562, 24 h, Table 13A); 100 to 1000 nM with HTT [2] (setting [7]); 1000 to 10000 nM in the assay on MYB [3] (K562, 24 h, Table 13A); 1000 to 10000 nM with MYB [4] (setting [7]); 1000 to 10000 nM with Target C [5] (K562, 24 h, Table 13A); < 100 nM in the assay on SMN2 (setting [7]). Besides, the half-inhibitory concentration (IC50) in the assay with Target C [6] (setting [7]) fell in the range of 1000 to 10000 nM.
For `COc1nc(-c2ccc(N(C)[C@@H]3C[C@H]4CC[C@@H](C3)N4)nn2)ccc1-n1cccn1` [Compound 907], the 50% inhibitory concentration (IC50) with HTT [1] (Table 13B, 24 hours) is 100 to 1000 nM; with HTT [2] (setting [8]) it was 100 to 1000 nM; with MYB [3] (Table 13B, 24 hours) it was 1000 to 10000 nM; in the assay with MYB [4] (setting [8]) it was 1000 to 10000 nM; in the assay with Target C [5] (Table 13B, 24 hours), 1000 to 10000 nM; in the assay with SMN2 (setting [8]), 100 to 1000 nM. Also, the IC50 in the assay on Target C [6] (setting [8]) was > 10000 nM.
On to `COc1nc(-c2ccc(N(C)[C@H]3CCN[C@@H](C)C3)nn2)ccc1-n1cccn1` [Compound 908], for which the IC50 with HTT [1] (K562, 24 h, Table 13B) is 1000 to 10000 nM; in the assay on HTT [2] (setting [8]), > 10000 nM; in the assay with MYB [3] (K562, 24 h, Table 13B), 1000 to 10000 nM; in the assay on MYB [4] (setting [8]), > 10000 nM; in the assay on Target C [5] (K562, 24 h, Table 13B) it was > 10000 nM; in the assay with SMN2 (setting [8]), 1000 to 10000 nM. The IC50 with Target C [6] (setting [8]) was 1000 to 10000 nM.
As for `Cc1nc(-c2ccc(N(C)[C@@H]3C[C@H]4CC[C@@H](C3)N4)nn2)ccc1-c1cn[nH]c1` [Compound 912], the IC50 is 1000 to 10000 nM with HTT [1] (K562, 24 h, Table 13B); 1000 to 10000 nM in the assay on HTT [2] (setting [8]); 1000 to 10000 nM with MYB [3] (K562, 24 h, Table 13B); 1000 to 10000 nM in the assay on MYB [4] (setting [8]); 1000 to 10000 nM with Target C [5] (K562, 24 h, Table 13B); 100 to 1000 nM in the assay with SMN2 (setting [8]). In the assay on Target C [6] (setting [8]), the IC50 lay within 1000 to 10000 nM.
Consider `COc1nc(-c2ccc(N(C)[C@@H]3C[C@H]4CC[C@@H](C3)N4)nn2)ncc1-c1cn[nH]c1` [Compound 913], for which the IC50 in the assay with HTT [1] (K562, 24 h, Table 13B) is 1000 to 10000 nM; with HTT [2] (setting [8]), 1000 to 10000 nM; with MYB [3] (K562, 24 h, Table 13B), 1000 to 10000 nM; in the assay with MYB [4] (setting [8]), 1000 to 10000 nM; in the assay with Target C [5] (K562, 24 h, Table 13B) it was 1000 to 10000 nM; with SMN2 (setting [8]), 1000 to 10000 nM. Further, the IC50 with Target C [6] (setting [8]) lay in the range of 1000 to 10000 nM.
Turning to `COc1cc(-c2ccc(N(C)[C@@H]3C[C@H]4CC[C@@H](C3)N4)nn2)ccc1-c1cn[nH]c1` [Compound 914], the half-maximal inhibitory concentration (IC50) in the assay on HTT [1] (K562, 24 h, Table 13B) is 1000 to 10000 nM; in the assay on HTT [2] (setting [8]) it was 100 to 1000 nM; with MYB [3] (K562, 24 h, Table 13B) it was 1000 to 10000 nM; in the assay on MYB [4] (setting [8]), 1000 to 10000 nM; with Target C [5] (K562, 24 h, Table 13B), 100 to 1000 nM; in the assay with SMN2 (setting [8]), < 100 nM. In addition, in the assay on Target C [6] (setting [8]), the IC50 lay within 100 to 1000 nM.
Turning to `CN(c1ccc(-c2ccc(-c3cn[nH]c3)c(C(F)(F)F)n2)nn1)[C@@H]1C[C@H]2CC[C@@H](C1)N2` [Compound 916], the concentration for half-maximal inhibition (IC50) in the assay with HTT [1] (K562, 24 h, Table 13B) was > 10000 nM; with HTT [2] (setting [8]), > 10000 nM; in the assay with MYB [3] (K562, 24 h, Table 13B), > 10000 nM; in the assay with MYB [4] (setting [8]), > 10000 nM; in the assay on Target C [5] (K562, 24 h, Table 13B), > 10000 nM; in the assay with SMN2 (setting [8]), > 10000 nM. Moreover, in the assay on Target C [6] (setting [8]), the IC50 is > 10000 nM.
Turning to `COc1cc(-c2ccc(N(C)[C@@H]3C[C@H]4CC[C@@H](C3)N4)nn2)ncc1-c1cn[nH]c1` [Compound 921], the IC50 with HTT [1] (K562, 24 h, Table 13B) is > 10000 nM; in the assay on HTT [2] (setting [8]), > 10000 nM; in the assay with MYB [3] (K562, 24 h, Table 13B) it was 1000 to 10000 nM; in the assay on MYB [4] (setting [8]) it was > 10000 nM; in the assay on Target C [5] (K562, 24 h, Table 13B), > 10000 nM; in the assay on SMN2 (setting [8]), 1000 to 10000 nM. Also, the IC50 in the assay with Target C [6] (setting [8]) was > 10000 nM.
In the case of `CN(c1ccc(-c2ccc(-c3cn[nH]c3)c(Cl)n2)nn1)[C@@H]1C[C@H]2CC[C@@H](C1)N2` [Compound 923], the IC50 was < 100 nM in the assay with HTT [1] (K562, 24 h, Table 13B); < 100 nM in the assay with HTT [2] (setting [8]); 100 to 1000 nM with MYB [3] (K562, 24 h, Table 13B); 100 to 1000 nM in the assay with MYB [4] (setting [8]); < 100 nM with Target C [5] (K562, 24 h, Table 13B); < 100 nM in the assay with SMN2 (setting [8]). The IC50 in the assay with Target C [6] (setting [8]) was in the range of 100 to 1000 nM.
